{"source": "paper PMC11943016", "about": "“TBG096 Ameliorates Memory Deficiency in AD Mouse Model via Promoting Neurogenesis and Regulation of Hsc70/HK2/PKM2/LAMP2A Signaling Pathway” (International Journal of Molecular Sciences, 2025)", "key": {"[1]": {"system": "Hsc70, LAMP2A, APP, PKM2, and HK2 proteins", "assay": "Western blot of CMA proteins in PC12 cells (inhibitor experiment)", "assay_type": "cell-based", "settings": "TBG096 1 µM, VER155008 3 µM, 4 h, vs control", "experimental": "(§1) In the inhibitor experiment of NGF-mimic activity, approximately 5 × 10^4 PC12 cells were seeded into each well of a 24-well plate and incubated for 24 h. After that, the medium in each well was replaced with 500 μL of serum-free DMEM or the serum-free DMEM containing VER155008, the inhibitor of Hsc70 protein, incubated in a CO2 incubator for 30 min. Subsequently, 500 μL of serum-free DMEM containing different samples was added and cultured, respectively. The PC12 cells with neurite outgrowth were recorded after 48 h. For the Western blot analysis, the experiment included five groups, namely the control (C) group, the NGF (40 ng/mL) group, the TBG096 (1 µM) group, the VER155008 (3 µM) group, and the VER155008 (3 µM) + TBG096 (1 µM) group. Afterwards, approximately 2 × 10^6 cells per dish were seeded into ten 6 cm Petri dishes with 5 mL of DMEM medium and incubated for 24 h. After giving different treatments with samples, the cells continued to culture for 4 h. Protein extraction was conducted to prepare for the subsequent Western blot analysis.\nApproximately 50 mg of cerebral cortex from brain tissues was homogenized in RIPA lysis buffer containing 1% protease inhibitor and 1% phosphatase inhibitor. Then, the sample was centrifuged at 12,000 rpm at 4 °C for 10 min, and the supernatant was transferred to a new tube. Protein concentrations were determined using the BCA kit, and 30 µg of protein from each sample was denatured by heating in water at 100 °C for 10 min. Subsequently, approximately 30 µg of protein from each sample was loaded into each well. After conducting gel electrophoresis at 80 V for 15 min and then at 120 V for 60 min, the proteins were transferred to the polyvinylidene fluoride (PVDF) membrane for 90 min. Then, the PVDF membrane was blocked with 5% skimmed milk at room temperature for 60 min. The membrane was incubated with a diluted primary antibody at 4 °C overnight. After washing the membrane three times with TBST buffer (1× TBS buffer containing 0.05% (v/v) tween 20), it was incubated with the secondary antibody for 1 h at room temperature. Finally, the strip was developed using chemiluminescence ECL reagent, and the blot density was quantified with ImageJ (National Institutes of Health, Bethesda, MD, USA)."}, "[2]": {"system": "PC12 cells", "assay": "EdU cell proliferation in PC12 cells (inhibitor experiment)", "assay_type": "cell-based", "settings": "VER155008 3 µM, NH4Cl 250 µM", "experimental": "In the inhibitor experiment of EdU cell proliferation activity, PC12 cells were seeded into each well of a 24-well plate as above for 24 h. Then, the medium in each well was replaced with 500 μL of serum-free […] containing VER155008 (inhibitor of Hsc70, 3 µM), or NH4Cl (inhibitor of lysosome, 250 µM) for 30 min according to the literature, and 500 μL of serum-free DMEM containing different samples was added and cultured for 24 h, respectively. After that, PC12 cells were treated with EdU for 2 h according to the operation steps of the BeyoClick™ EdU-488 cell proliferation detection kit (#C0071S, Beyotime Biotechnology, Shanghai, China). After cell labeling, the supernatant was removed. Then, PC12 cells were fixed, washed, and blocked, and the click reaction solution was added at room temperature for 30 min. After that, DAPI staining was performed for 10 min. Finally, PC12 cells were detected by fluorescence microscope (Olympus IX53, Tokyo, Japan)."}, "[3]": {"system": "PC12 cells", "assay": "MTT assay, cytotoxicity in PC12 cells", "assay_type": "cell-based", "settings": "10 µM", "experimental": "PC12 cells were firstly inoculated into a 24-well plate and cultured for 24 h. Following this, samples at different doses were added and cultured for 24 h. Subsequently, the 0.5 mL serum-free medium containing MTT (0.2 mg/mL) of each well was used to replace the original medium and incubated for 2 h. After removing the solution, the purple crystal was dissolved in 200 μL of DMSO, and the absorbance was measured at 570 nm. The cell survival rate for each group was calculated based on the control group."}, "[4]": {"system": "PC12 cells", "assay": "NGF-mimic activity: neurite outgrowth in PC12 cells", "assay_type": "cell-based", "settings": "0.3, 1, and 3 µM, 48 h", "experimental": "The neurogenic activity of samples was evaluated according to the methods described in our previous study. Briefly, approximately 5 × 10^4 cells were seeded in each well of a 24-well microplate and were cultured under a humidified atmosphere with 5% CO2 at 37 °C for 24 h. Then, the medium in each well was replaced with 1 mL of serum-free DMEM containing 40 ng/mL NGF as a positive control, 0.5% DMSO as a negative control, and the test sample after 24 h, respectively. About 100–200 cells of each well were counted from a randomly selected area and repeated thrice after 48 h. A cell-bearing neurite outgrowth longer than the diameter of the cell body was identified as a positive cell. The activity was presented as the percentage of positive cells in the selected area.\nas §1"}, "[5]": {"system": "gut microbiota", "assay": "Gut microbiota analysis in HFD-induced AD mice", "assay_type": "in vivo", "settings": "Met 140 mg/kg", "description": "(§2) In experiments with the HFD-induced AD mouse model, a total of 60 Institute of Cancer Research (ICR) male mice aged 4 weeks from Zhejiang Academy of Medical Sciences (Hangzhou, China) were used for animal experiments (permit number: ZJU20230121). The animals were provided free access to a chow diet and water. […] The HFD and normal diet were alternated every two days to maintain freshness. Weekly measurements were taken for water intake, food intake, and body weight. In the eighteenth week, the mice underwent Y-maze and NOR tests. The Morris water maze test was conducted during the nineteenth week. After confirming the successful establishment of the AD model characterized by cognitive impairment, oral administration of treatments commenced. […] Each group had 10 mice."}, "[6]": {"system": "HFD-induced AD mice", "assay": "Immunofluorescence staining of brain tissue of HFD-induced AD mice", "assay_type": "in vivo", "description": "as §2\nAt the end of animal experiments, three mice in each group were taken for heart perfusion with cold PBS and 4% paraformaldehyde. After that, the brains of mice were fixed with 4% paraformaldehyde for 24 h and gradually dehydrated with 15% and 30% sucrose solutions for 48 h, respectively. The fixed and embedded brain sample was placed in a cryostat and cut into 20 µm thick slices with a cryostat (Thermo Fisher, Waltham, MA, USA), and brain slices in the hippocampus and cortex were collected. Finally, the brain slices were placed in antifreeze (glycerol/ethylene/PBS = 3:3:4) and kept in a refrigerator at −30 °C until immunostaining. The brain slices were fixed on a glass slide and hydrated with PBS for 5 min. Then, blocking buffer was added to the brain slices and incubated at room temperature for 1 h. Brain slices were washed twice with PBS and incubated with anti-NeuN, anti-BrdU, anti-Iba1, anti-GFAP, anti-INOS, anti-APP, or anti-p-Tau at 4 °C for 24 h, respectively. Subsequently, the brain slices were incubated with secondary antibody (goat anti-rabbit IgG H&L (Alexa Fluor® 488) or rabbit anti-mouse IgG (Cy3 conjugate)) at room temperature for 2 h after washing with PBS three times. Finally, a cover glass was used to lightly cover the slices stained with DAPI. […] Biomarker proteins in the cerebral cortex and hippocampus were digitized by Image J software (National Institutes of Health, Bethesda, MD, USA)."}, "[7]": {"system": "HFD-induced AD mice", "assay": "Behavioral tests (Y-maze, NOR, MWM) in HFD-induced AD mice", "assay_type": "in vivo", "description": "as §2\nThe Y-maze test is used to evaluate working memory, and the process was referenced in another report. In brief, the Y-maze consists of three black plastic arms (A, B, and C) with the same length (30 cm), width (10 cm), height (15 cm), and 120° relative to adjacent arms. Each mouse is placed facing the wall of arm A and allowed to explore the maze freely for 5 min. The behavior of mice is recorded with a video recorder, and the data are stored in ANY-MAZE software version 6.35 (Stoelting, Chicago, IL, USA). The total number of entries made by the mice into each arm—considered as either whole or half-body entries—is recorded. An alternation is defined as a mouse moving through all three arms without returning to the initial arm on the third visit. Alternation: number of alternations/(number of arm entries − 2) × 100%.\nThe NOR test is utilized to assess the working memory capabilities of mice. The NOR apparatus consists of an open, black plastic box, two identical objects, and one novel object. The activity of the mice within the open field is captured and recorded using a video recorder, with data subsequently stored in ANY-MAZE software. The test is conducted over a span of two days, incorporating habituation, training, and testing stages. During the habituation phase, the mice are placed in the box devoid of any objects, allowing them to explore freely for a duration of five min. Following a 24 h interval, the NOR test is administered, which consists of both the training and testing phases. In the training phase, each mouse is positioned in the central area of the box, where two identical objects are placed equidistant from the mouse. Each training session lasts for five minutes. After a one-hour break, one of the identical objects is replaced with a new, distinct object, and the exploration duration for each mouse is recorded. Exploration is defined by the time a mouse spends touching or sniffing an object. The exploration times during both the training and testing phases are documented via video recording, and the data are organized within ANY-MAZE software. The object recognition index was defined as follows: (time spent on the new object)/(time spent on the old object + time spent on the new object) × 100%. The data are calculated by ANY-MAZE software.\nThe MWM test is used to measure spatial memory and long-term memory. The whole MWM equipment includes a circular water tank (diameter 1.5 m, depth 50 cm) with warm water (22 ± 1 °C) 35 cm deep, a platform (diameter 14 cm, immersed 1 cm in water), a camera, and a computer for data analysis. The MWM test is conducted over five 5 days: 4 days for training and 1 day for testing. The pool is divided into four quadrants, and at least three quadrants are tested at a time. In the training stage, the mouse is placed on the wall of one of the four quadrants and allowed to swim and find the platform hidden underwater within 120 s. If the mouse cannot find the platform, the experimenter will guide it and let it stay on the platform for 10 s. The experiment lasts for 4 days. On the fifth day of the test phase, the platform is removed, and each mouse is placed in a similar starting position and allowed to move freely for 90 s. […]"}, "[8]": {"settings": "cited from earlier work"}}}
{"compound": "N#Cc1ccc(COC[C@H]2O[C@@H](n3c(NCc4ccc(Cl)c(Cl)c4)nc4c(N)ncnc43)[C@H](O)[C@@H]2O)cc1", "note": "[VER155008, reference compound]", "values": [{"measurement": "APP protein expression", "setting": "[1]", "result": "significantly increased"}, {"measurement": "Hsc70 protein level", "setting": "[1]", "result": "significantly decreased"}, {"measurement": "LAMP2A protein level", "setting": "[1]", "result": "significantly increased"}, {"measurement": "PKM2 protein expression", "setting": "[1]", "result": "significantly increased"}, {"measurement": "effect of inhibitor on the EdU cell proliferation activity of TBG096", "setting": "[2]", "result": "reverse the activity"}]}
{"compound": "O=C(SCCCCCCCCSCCCC(F)(F)F)c1cccc(O)c1O", "note": "[compound 4]", "values": [{"measurement": "toxicity in PC12 cells (MTT)", "setting": "[3]", "result": "some level of toxicity"}, {"measurement": "percentage of PC12 cells exhibiting neurite growth", "setting": "[4]", "result": "superior activity"}]}
{"compound": "CN(C)C(=N)N=C(N)N", "note": "[Met, Metformin, reference compound]", "values": [{"measurement": "abundance of Firmicutes (decreased by HFD) and Bacteroidota (increased by HFD)", "setting": "[5]; TBG096 20 mg/kg", "result": "reversed"}, {"measurement": "abundance of Ligilactobacillus", "setting": "[5]; TBG096 5 and 20 mg/kg", "result": "improved"}, {"measurement": "APP and phosphorylation Tau protein in the hippocampus", "setting": "[6]; immunofluorescence", "result": "reduction"}, {"measurement": "number of mature neurons (NeuN) in the cerebral cortex", "setting": "[6]; vs HFD-only group", "result": "increased numbers of mature neurons"}, {"measurement": "number of arm entries, Y-maze test", "setting": "[7]; TBG096 0.1, 5, 20 mg/kg, Met 140 mg/kg, 54 days", "result": "No significant differences"}, {"measurement": "escape latency, MWM training phase", "setting": "[7]; fourth day, Met 140 mg/kg and all doses of TBG096", "result": "markedly reduced"}, {"measurement": "number of platform crossings, MWM test phase", "setting": "[7]; vs HFD-only group", "result": "increased significantly"}]}
{"compound": "Cl.N", "note": "[NH4Cl]", "values": [{"measurement": "effect of inhibitor on the EdU cell proliferation activity of TBG096", "setting": "[2]", "result": "reverse the activity"}]}
{"compound": "NGF: Nerve growth factor, the first recognized neurotrophic factor; positive control in PC12 assay", "values": [{"measurement": "BBB penetration", "setting": "[8]", "result": "cannot penetrate the BBB"}]}
